Laboratory results: US6455510B1, “Chemical Compounds” (SmithKline Beecham Corporation, priority 1997, dated 2002)

Key:
[1] = target: T1, human adenosine A3 receptor (Homo sapiens, UniProt P0DMS8); experiment: Reporter gene assay (CRE/SPAP) in CHO cells, agonist activity, adenosine A3; type: cell-based; conditions: CHO cells stably transfected with human adenosine A3 receptor; inhibition of forskolin-stimulated SPAP production; potency relative to NECA=1
T1 construct: expressed in transfected cells; host or cells: Chinese hamster ovary (CHO) cells containing CRE/SPAP/HYG reporter elements
T1 sequence (P0DMS8 1-318): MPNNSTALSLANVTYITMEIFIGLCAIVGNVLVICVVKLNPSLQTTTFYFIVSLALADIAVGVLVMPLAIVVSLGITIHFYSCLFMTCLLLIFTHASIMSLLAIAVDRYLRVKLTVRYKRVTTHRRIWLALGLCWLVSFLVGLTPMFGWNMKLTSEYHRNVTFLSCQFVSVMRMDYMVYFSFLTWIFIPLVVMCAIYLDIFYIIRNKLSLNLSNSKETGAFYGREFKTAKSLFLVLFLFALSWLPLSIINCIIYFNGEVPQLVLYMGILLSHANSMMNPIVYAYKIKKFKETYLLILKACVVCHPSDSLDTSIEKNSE
Description: (§1) Reporter Gene Experiments
(§2) Agonist activity was measured in Chinese hamster ovary (CHO) cells containing the CRE/SPAP/HYG (CRE=cyclic AMP response element; HYG=hygromycin resistance; SPAP=secreted placental alkaline phosphatase) reporter gene elements, which upon stimulation of cAMP levels produced SPAP. A cell line was used, which was stably transfected with either the human adenosine Al receptor or the human adenosine A3 receptor in addition to the above elements. Cells were plated out in 96-well plates in culture medium and incubated at 37° C. for 1 hour. For measurement of potency, agonists were added to the appropriate wells at a concentration range of approximately 10^−10-10^−5M. 15 Min later, cAMP levels were stimulated by addition of a maximal concentration of forskolin. All cells were then incubated for a further 5 hours at 37° C., and cooled to room temperature, after which a substrate for the phosphatase (para-nitrophenol phosphate, pNPP), which is converted by SPAP to a coloured reagent) was then added and the 96-well plates were read in a plate reader. From these readings, the concentration-dependence of the inhibition by the agonist for forskolin-stimulated SPAP production can be calculated. One of the agonists tested on each 96-well plate was the standard non-selective agonist, N-ethylcarboxamidoadenosine (NECA), and the potency of all test agonists is expressed relative to that of the NECA standard.
(§3) (ECR=equipotent concentration ratio relative to NECA=1)

[2] = target: T2, human adenosine A1 receptor (Homo sapiens, UniProt P30542); experiment: Reporter gene assay (CRE/SPAP) in CHO cells, agonist activity, adenosine A1; type: cell-based; conditions: CHO cells stably transfected with human adenosine A1 receptor; inhibition of forskolin-stimulated SPAP production; potency relative to NECA=1
T2 construct: expressed in transfected cells; host or cells: Chinese hamster ovary (CHO) cells containing CRE/SPAP/HYG reporter elements
T2 sequence (P30542 1-326): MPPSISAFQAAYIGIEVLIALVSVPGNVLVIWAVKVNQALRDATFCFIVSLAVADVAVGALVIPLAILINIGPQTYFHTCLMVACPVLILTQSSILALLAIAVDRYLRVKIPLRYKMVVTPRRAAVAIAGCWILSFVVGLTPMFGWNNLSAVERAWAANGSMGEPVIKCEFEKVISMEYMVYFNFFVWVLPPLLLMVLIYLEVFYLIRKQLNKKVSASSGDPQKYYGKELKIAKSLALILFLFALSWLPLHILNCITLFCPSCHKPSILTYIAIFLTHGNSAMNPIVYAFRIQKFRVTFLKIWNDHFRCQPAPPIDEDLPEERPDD
Description: as §1
as §2, with “For measurement of potency, agonists were added to the appropriate wells at a concentration range of approximately 10^−10-10^−5M.” left out, “calculated.” for “calculated. One of the agonists tested on each 96-well plate was the standard non-selective agonist, N-ethylcarboxamidoadenosine (NECA), and the potency of all test agonists is expressed relative to that of the NECA standard.”
as §3

## CS(=O)(=O)N1CCC(Nc2nc(Cl)nc3c2ncn3[C@@H]2O[C@H](CF)[C@@H](O)[C@H]2O)CC1 [Example 23, 2-Chloro-5′-deoxy-5′-fluoro-N-(1-methanesulfonyl-piperidin-4-yl)-adenosine]
[1]
  A3 Receptor, Reporter Gene Assay ECR (equipotent concentration ratio relative to NECA=1): 48.90
[2]
  A1 Receptor, Reporter Gene Assay ECR (equipotent concentration ratio relative to NECA=1): 11.20

## CC(C)(C)CNc1nc(Cl)nc2c1ncn2[C@@H]1O[C@H](CF)[C@@H](O)[C@H]1O [Example 24, 2-Chloro-5′-deoxy-N-(2,2-dimethyl-propyl)-5′-fluoro-adenosine]
[1]
  A3 Receptor, Reporter Gene Assay ECR (equipotent concentration ratio relative to NECA=1): >233.00
[2]
  A1 Receptor, Reporter Gene Assay ECR (equipotent concentration ratio relative to NECA=1): 7.83

## CCCCOC(=O)N1CCC(Nc2nc(Cl)nc3c2ncn3[C@@H]2O[C@H](CF)[C@@H](O)[C@H]2O)CC1 [Example 26, 4-[2-Chloro-9-(5S-fluoromethyl-3R,4S-dihydroxy-tetrahydro-furan-2R-yl)-9H-purin-6-ylamino]-piperidine-1-carboxylic acid butyl ester]
[1]
  A3 Receptor, Reporter Gene Assay ECR (equipotent concentration ratio relative to NECA=1): >233.00
[2]
  A1 Receptor, Reporter Gene Assay ECR (equipotent concentration ratio relative to NECA=1): 4.50

## O[C@@H]1[C@H](O)[C@@H](CF)O[C@H]1n1cnc2c(Nc3ccc(Cl)cc3F)ncnc21 [Example 28, N-(4-Chloro-2-fluoro-phenyl)-5′-deoxy-5′-fluoro-adenosine]
[1]
  A3 Receptor, Reporter Gene Assay ECR (equipotent concentration ratio relative to NECA=1): >170.00
[2]
  A1 Receptor, Reporter Gene Assay ECR (equipotent concentration ratio relative to NECA=1): 2.05

## CCNC(=O)N1CCC(Nc2nc(Cl)nc3c2ncn3[C@@H]2O[C@H](CF)[C@@H](O)[C@H]2O)CC1 [Example 29, 4-[2-Chloro-9-(5S-fluoromethyl-3R,4S-dihydroxy-tetrahydro-furan-2R-yl)-9H-purin-6-ylamino]-piperidine-1-carboxylic acid ethylamide]
[1]
  A3 Receptor, Reporter Gene Assay ECR (equipotent concentration ratio relative to NECA=1): >236.00
[2]
  A1 Receptor, Reporter Gene Assay ECR (equipotent concentration ratio relative to NECA=1): 51.60
